Entries after “also recorded” stand apart in the source; their conditions may differ. Numbered stars: 1 amine (or outer) side, 2 acyl side, 3 side chain; on linkers, the order of the positions; unused ones are H or OH. Peptide text beside a SMILES is read from it. * marks the point of attachment. X1 = Brc1ccc2c(c1)-c1cc(N*)ccc1C2; Suc = O=C(CCC(=O)[*:2])[*:1]
Columns and labels:
[1] = test system: Myzus persicae; experiment: Desiccation/starvation tolerance assay after peptide microinjection; format: in vivo; settings: for Reduction of LTime50 relative to control / Reduction of median survival relative to control: M. persicae, desiccation/starvation stress; for Documented effect on desiccation/starvation mortality / LTime50 (h), test / Median ± IQR survival (h), test: Myzus persicae, microinjection; for Documented effect on desiccation/starvation mortality: final concentration ×10^−5 M, relative to vehicle control; for LTime50 (h), test / Median ± IQR survival (h), test: ×10^−5 M, desiccation and starvation stress, test group
Procedure: (§1) Neuropeptides were administered to test aphids via microinjection to allow for rapid mass screening of neuropeptide analogue efficacy. For this, native neuropeptides were diluted in double distilled water (DDH2O) to a concentration of 1×10^−5 M. Neuropeptide analogues were diluted in DDH2O to the following concentrations: kinin analogues 1728 (2.5×10^−5 M), 2139 (3.5×10^−5 M), 2139-Ac (3.5×10^−5 M); CAP2b analogues 1895 (3.5×10^−5 M), 1896 (3.5×10^−5 M), 1902 (3.5×10^−5 M), 2089 (3.9×10^−5 M), 2123 (1.0×10^−5 M), 2125 (1.0×10^−5 M), 2129 (2.0×10^−5 M). Once at the desired concentration, neuropeptide solutions were administered to test aphids at an injection volume of 9 nl based on total haemolymph volume, to produce an approximate 1:20 dilution of injection volume to haemolymph. Injections were performed using a pulled glass needle and a Nanoject II Auto-Nanoliter Injector (Drummond Scientific Company, Broomall, Pa.). A vehicle control was set up for each treatment/day of experiments to account for variation in needle pulling. For this, control aphids were injected with 9 nl of DDH2O and subsequently exposed to the same experiments as aphids receiving the neuropeptide treatment. Neuropeptide treated and vehicle control aphids were subsequently used in the stress bioassays detailed below.
(§2) Anholocyclic adults of mixed age of either M. persicae or M. rosae were selected from the stock cultures and treated with a native neuropeptide or neuropeptide analogue via microinjection using the method detailed above. Treated and vehicle control aphids were allowed to recover on excised leaves of the host plant for 1 h before being placed in an empty ventilated microcage (L=4 cm, 0=9.5 cm) at densities of 10 per cage. In total, 30-40 aphids were treated for each neuropeptide treatment group and a further 30-40 for the associated vehicle control group. From the point of placement in the microcage (taken as 0 h), aphid survival was checked every hour during daylight hours and approximately every 4 h during night-time hours until the final aphid died. Survival data were subsequently analysed using a Log-rank (Mantel-Cox) text in GraphPad Prism version 7.0. LTime50 (the time taken to kill 50% of the test population) values were calculated via Probit Analysis in Minitab 17 (Minitab Inc., State College, Pa.).

[2] = test system: Macrosiphum rosae; experiment: as above; format: in vivo; settings: for Reduction of LTime50 relative to control / Reduction of median survival relative to control: M. rosae, desiccation/starvation stress; for Documented effect on desiccation/starvation mortality / LTime50 (h), test / Median IQR survival (h), test: Macrosiphum rosae, microinjection; for Documented effect on desiccation/starvation mortality: final concentration ×10^−5 M, relative to vehicle control; for LTime50 (h), test / Median IQR survival (h), test: ×10^−5 M, desiccation and starvation stress, test group
Procedure: as §1, §2

[3] = test system: Aphids; experiment: Feeding with peptides in artificial diet, mortality without other stress; format: in vivo, Myzus persicae; settings: ingestion via artificial diet
Procedure: A standard artificial diet for M. persicae was produced as described in Van Emden (2009) and provided the basal diet to which neuropeptide analogues were added for screening purposes. Neuropeptide analogues were diluted individually in the artificial diet to a pre-determined recommended concentration as follows: 1895 (3.5×10^−5 M) and 2019 (2.0×10^−5 M).
Feeding apparatus were constructed using a set-up developed by Sadeghi et al (2009). For this, a piece of Parafilm was stretched over a Plexiglas ring (h=4 cm, Ø=3 cm) and 100 μl of the artificial diet containing the desired neuropeptide analogue was pipette onto the Parafilm membrane. A second piece of Parafilm, stretched to 4 times the original thickness, was stretched over the original layer, sandwiching the artificial diet between two layers of Parafilm. A strip of Parafilm was wrapped around the circumference of the Plexiglas ring, sealing in the diet. A plastic ring (h=1.2 cm, Ø=3.4 cm) was subsequently placed over the Parafilm layer, creating a walled chamber in which to house test aphids in contact with the Parafilm layer containing the artificial diet. Finally, a small Petri dish (h=1 cm, Ø=3.6 cm), modified for ventilation with net cloth, was placed on top of each feeding apparatus to prevent aphid escape.
To obtain aphids for use in experiments, reproducing anholocyclic adults were placed on individual excised leaves of Chinese cabbage at densities of 5 adults per leaf and allowed to reproduce for 24 h. The stem of each excised leaf was held within a 0.5 mL Eppendorf tube containing water via a punctured hole in the Eppendorf lid, and placed individually within a microcage (L=4 cm, Ø=9.5 cm). Following 24 h, adults were removed and resultant first instar nymphs (<1 day old and synchronised in age to within 24 h) retained. Nymphs were allowed to develop on the Chinese cabbage for 5 days. On day 5, (3rd instar) nymphs were transferred onto the artificial diet containing a neuropeptide analogue at densities of 1 per feeding chamber and monitored daily until death. Aphids were transferred to fresh artificial diet (containing neuropeptide analogue) every 5 days. Life history traits recorded include age at first reproduction, number of nymphs produced per 24 h period, and lifespan. From these parameters, lifetime fecundity and daily fecundity were calculated. Control groups were set up involving aphids reared on the host plant, an artificial diet without a neuropeptide analogue, and an artificial diet containing the native CAPA neuropeptide.
Aphids were reared on artificial diet, alone or supplemented with peptide 2129, 2315, 2316 or 2320. A control group (no test peptide) was reared on a host plant. No other stress conditions were applied.
For peptides 2315, 2316 and 2320, mortality was assessed at 48, 72, 96, 120 and 144 hours. A group of 9 or 10 insects was used for each time point, and all experiments were performed at least 4 times.

Compound	Reduction of LTime50 relative to control [1] [h]	Reduction of median survival relative to control [1] [h]	Documented effect on desiccation/starvation mortality [1]	LTime50 (h), test [1]	Median ± IQR survival (h), test [1]	Reduction of LTime50 relative to control [2] [h]	Reduction of median survival relative to control [2] [h]	Documented effect on desiccation/starvation mortality [2]	LTime50 (h), test [2]	Median IQR survival (h), test [2]	change in mortality relative to the control ([3]; after 24 h) [%]	percentage survival ([3]; after 24 h) [%]	effect on aphid longevity ([3]; after the first 24 h)
2Abf-Suc-FGPRL-NH2 [compound 1895]	3.5	4.0	significantly increase mortality relative to the control; also recorded: significantly increased desiccation/starvation mortality; also recorded: Increases	15.9 | 12.4 h	17.8 ± 12.0 | 13.8 ± 11.8 h	9.6	10.5	significantly increase mortality relative to the control; also recorded: significantly increased desiccation/starvation mortality; also recorded: Increases	18.7 | 9.1 h	17.5 ± 19.5 | 7.0 ± 12.5 h	–	–	–
CC[C@H](C)[C@H](NC(=O)[C@H](CCCNC(=N)N)NC(=O)[C@@H]1CCCN1C(=O)[C@@H](NC(=O)[C@H](C)NC(=O)CCC(=O)Nc1ccc2c(c1)-c1cc(Br)ccc1C2)[C@@H](C)O)C(N)=O [compound 2129, 2Abf-Suc-ATPRI-NH2] ({X1-Suc}-ATPRI-NH2)	7.1	9.8	significantly increase mortality relative to the control; also recorded: significantly increased desiccation/starvation mortality; also recorded: Increases	15.9 | 8.8 h	17.8 ± 12.0 | 8.0 ± 17.0 h	11.6	12.8	significantly increase mortality relative to the control; also recorded: significantly increased desiccation/starvation mortality; also recorded: Increases	24.3 | 12.7 h	23.8 ± 20.5 | 11.0 ± 13.0 h	19.7	73.8	highly significant reduction in aphid longevity

Source: patent publication US20220039395A1, “INSECT CONTROL AGENTS” (priority 2018, published 2022)
